Data from PMC9264115, “Pd-catalyzed C–C and C–N cross-coupling reactions in 2-aminothieno[3,2-d]pyrimidin-4(3H)-one series for antiplasmodial pharmacomodulation” (RSC Advances, 2022).
Where two headings read alike, the source gives them in different places.

Legend:
HepG2 cell line = conditions: cited from earlier work
[1] = tested on: K1 culture-adapted P. falciparum strain; parameters: method as in PMID 25791675; conditions: K1 strain of P. falciparum; reference values; read-out: EC50 PfK1; cited from earlier work
Microsomal stability = format: in vitro ADME, mouse; conditions: for half-life: CD-1, read-out: t1/2 (half-time, microsomal stability); for half-life / Clint (intrinsic clearance): in vitro, female mouse microsomes, 37 °C, pH 7.4
Description: The tested product and propranolol, used as a reference, were incubated in duplicate (reaction mixture volume of 0.5 mL) with female mouse microsomes (CD-1, 20 mg mL; BD Gentest) at 37 °C in a 50 mM phosphate buffer, pH 7.4, in the presence of MgCl2 (5 mM), NADP (1 mM), glucose-6-phosphate dehydrogenase (G6PD) (0.4 U per mL), and glucose-6-phosphate (5 mM). For the estimation of the intrinsic clearance, 50 μL aliquots were collected at 0, 5, 10, 20, 30, and 40 min and the reaction was stopped with 4 volumes of acetonitrile (ACN) containing the internal standard. After centrifugation at 10 000×g for 10 min at 4 °C, the supernatants were conserved at 4 °C for immediate analysis or placed at −80 °C in case of postponement of the analysis. Controls (time zero and final time point) in triplicate were prepared by the incubation of the internal standard with microsomes denatured by acetonitrile. The LC-MS system used for this study was a Waters Acquity I-Class/Xevo TQD equipped with a Waters Acquity BEH C18 column, 50 by 2.1 mm, 1.7 μm. The mobile phases were 10 mM ammonium acetate (mobile phase A) and acetonitrile with 0.1% formic acid (mobile phase B). The injection volume was 1 μL, and the flow rate was 600 μL min^−1. Chromatographic analysis, with a total duration of 4 min, was made with the following gradient: 0 < t < 0.2 min, 2% mobile phase B; 0.2 < t < 2 min, linear increase to 98% mobile phase B; 2 < t < 2.5 min, 98% mobile phase B; 2.5 < t < 2.6 min, linear decrease to 2% mobile phase B; 2.6 < t < 4 min, 2% mobile phase B. The quantification of each compound was obtained by converting the average of the ratios of the analyte/internal standard surfaces to the percentage of consumed product. The ratio of the control at t0 corresponded to 0% of the product consumed. The calculation of the half-life (t1/2) of each compound in the presence of microsomes was carried out according to the equation t1/2 = (ln2)/k, where k is the first-order degradation constant (the slope of the logarithm of the compound concentration versus incubation time). The intrinsic clearance in vitro (Clint, expressed in mlmin^−1mg) was calculated according to the equation Clint = (dose/AUC∞)/[microsomes], where dose is the initial concentration of the product in the sample, AUC∞ is the area under the concentration–time curve extrapolated to infinity, and [microsomes] is the microsome concentration expressed in mg μL^−1.

[2] = Cytotoxic evaluation, MTT assay; format: cell-based; conditions: HepG2 cells, human HepG2 cell line, three independent experiments
Description: The HepG2 cell line was maintained at 37 °C, 5% CO2, at 90% humidity in […] supplemented with 10% fetal bovine serum, 1% L-glutamine (200 mM), and penicillin (100 U per mL)/streptomycin (100 μg mL^−1) (complete RPMI medium). The cytotoxicity of the tested molecules on the HepG2 (hepatocarcinoma cell line purchased from ATCC, ref HB-8065) cell line was assessed according to the method of Mosmann[20] with slight modifications. Briefly, 5 × 10^3 cells in 100 μL of complete medium were inoculated into each well of 96-well plates and incubated at 37 °C in humidified 5% CO2. After 24 h incubation, 100 μL of medium with various product concentrations dissolved in DMSO (final concentration less than 0.5% v/v) were added and the plates were incubated for 72 h at 37 °C. Triplicate assays were performed for each sample. Each plate was then microscopically examined for possible precipitate formation before the medium was aspirated from the wells. Next, 100 μL of MTT (3-(4,5-dimethyl-2-thiazolyl)-2,5-diphenyl-2H-tetrazolium bromide) solution (0.5 mg mL^−1 in medium without FBS) was added to each well. Cells were incubated for 2 h at 37 °C. After this time, the MTT solution was removed and DMSO (100 μL) was added to dissolve the resulting blue formazan crystals. Plates were shaken vigorously (700 rpm) for 10 min. The absorbance was measured at 570 nm with 630 nm as a reference wavelength using a BIO-TEK ELx808 Absorbance Microplate Reader (LabX, Midland, ON, Canada). DMSO was used as a blank and doxorubicin (purchased from Sigma Aldrich) as a positive control. Cell viability was calculated as a percentage of control (cells incubated without the compound). […] CC50 values to represent the mean value calculated from three independent experiments.

[3] = tested on: K1 culture-adapted P. falciparum strain; experiment: Antiplasmodial evaluation, SYBR Green I fluorescence-based drug susceptibility test; format: cell-based; conditions: for EC50: Plasmodium falciparum, multi-resistant K1 strain of P. falciparum, 72 h incubation, three independent experiments, read-out: EC50 PfK1; for SI (selectivity index): from CC50 HepG2 and EC50 PfK1
Description: […]. Parasitemia was maintained daily between 1 and 3%. The P. falciparum drug susceptibility test was carried out by comparing quantities of DNA in treated and control cultures of parasite in human erythrocytes according to a SYBR Green I fluorescence-based method[19] using a 96-well fluorescence plate reader. Compounds previously dissolved in DMSO (final concentration less than 0.5% v/v) were incubated in a total assay volume of 200 μL (RPMI, 2% hematocrit and 0.4% parasitemia) for 72 h in a humidified atmosphere (10% O2 and 5% CO2) at 37 °C in 96-well flat bottom plates. Duplicate assays were performed for each sample. After incubation, plates were frozen at […] for 24 h. Then, the frozen plates were thawed for 1 h at 37 °C. Fifteen μL of each sample were transferred to 96-well flat bottom non-sterile black plates (Greiner Bio-one, Kremsmünster, Austria), already containing 15 μL of the SYBR Green I lysis buffer (2X SYBR Green I, 20 mM Tris base pH 7.5, 20 mM EDTA, 0.008% w/v saponin, 0.08% w/v Triton X-100). […] Plates were incubated for 15 min at 37 °C and then read on a TECAN Infinite F-200 spectrophotometer with excitation and emission wavelengths at 485 and 535 nm, respectively.

[4] = read-out: CC50 HepG2, human HepG2 cell line, reference values

EC50 [3] [µM] | melting point [°C] | Compound | EC50 [1] [µM] | CC50 at 72 h [2] [µM] | SI (selectivity index) [3] | also measured
 |  | O=C1C(O)=C([C@H]2CC[C@H](c3ccc(Cl)cc3)CC2)C(=O)c2ccccc21 [Atovaquone, atovaquone] | 0.0013 |  |  | CC50 (HepG2 cell line; [4]): > 15.6 µM
 |  | CCN(CC)CCCC(C)Nc1ccnc2cc(Cl)ccc12 (stereo not drawn) [Chloroquine, chloroquine] | 0.5 |  |  | 
0.77 ± 0.13 |  | CC(C)(C)Nc1nc2cc(N3CCCCC3)sc2c(=O)[nH]1 [Compound 1g, 2-tert-Butylamino-6-(piperidin-1-yl)thieno[3,2-d]pyrimidin-4(3H)-one] |  | 33.9 ± 1.4 |  | half-life (Microsomal stability): 40 min; Clint (intrinsic clearance) (Microsomal stability): 42 μLmin^−1mg; improvement in the half-time versus M1 (Microsomal stability; mouse microsomes, piperidine moiety (1g) vs tolyl moiety (M1)): more than 3 fold
1 ± 0.3 | 272 to 274 | CSc1ccc(-c2cc3nc(NC(C)(C)C)[nH]c(=O)c3s2)cc1 [Compound 4j, 2-tert-Butylamino-6-[4-(methylsulfanyl)phenyl]thieno[3,2-d]pyrimidin-4(3H)-one] |  | > 12.5 | >12.5 | 
> 12.5 | > 300 | CC(C)(C)Nc1nc2cc(-c3ccc(S(N)(=O)=O)cc3)sc2c(=O)[nH]1 [Compound 4l, 4-(2-tert-Butylamino-4-oxo-3,4-dihydrothieno[3,2-d]pyrimidin-6-yl)benzenesulfonamide] |  | > 6.25 |  | 
5.1 ± 2.6 | > 300 | CC(C)(C)Nc1nc2cc(-c3ccc(S(=O)(=O)N4CCOCC4)cc3)sc2c(=O)[nH]1 [Compound 4m, 2-tert-Butylamino-6-[4-(morpholin-4-ylsulfonyl)phenyl]thieno[3,2-d]pyrimidin-4(3H)-one] |  | > 12.5 | >2.5 | 
2.1 ± 0.6 | > 300 | CC(C)(C)Nc1nc2cc(-c3cnc(N4CCOCC4)nc3)sc2c(=O)[nH]1 [Compound 4n, 2-tert-Butylamino-6-[2-(morpholin-4-yl)pyrimidin-5-yl]thieno[3,2-d]pyrimidin-4(3H)-one] |  | 26.4 ± 4.6 | 12.6 | 
4.4 ± 1 | 289 to 291 | CN1CCN(c2ncc(-c3cc4nc(NC(C)(C)C)[nH]c(=O)c4s3)cn2)CC1 [Compound 4o, 2-tert-Butylamino-6-[2-(4-methylpiperazin-1-yl)pyrimidin-5-yl]thieno[3,2-d]pyrimidin-4(3H)-one] |  | 11.2 ± 1.3 | 2.5 | 
3.5 ± 1.2 | 259 to 261 | CC(C)(C)Nc1nc2cc(-c3ccc(N)cc3)sc2c(=O)[nH]1 [Compound 4p, 6-(4-aminophenyl)-2-tert-butylaminothieno[3,2-d]pyrimidin-4(3H)-one] |  | 2.5 ± 1 | 0.7 | 
3.9 ± 1.1 | > 300 | CC(=O)Nc1ccc(-c2cc3nc(NC(C)(C)C)[nH]c(=O)c3s2)cc1 [Compound 4r, N-[4-(2-tert-butylamino-4-oxo-3,4-dihydrothieno[3,2-d]pyrimidin-6-yl)phenyl]acetamide] |  | 0.16 ± 0.04 | <0.1 | 
> 12.5 | 251 to 253 | CC(C)(C)Nc1nc2cc(-c3ccc(S(C)(=N)=O)cc3)sc2c(=O)[nH]1 (stereo not drawn) [Compound 4s, 2-tert-Butylamino-6-[4-(methylsulfonimidoyl)phenyl]thieno[3,2-d]pyrimidin-4(3H)-one] |  | 63.3 ± 14.6 | <5.1 | 
 |  | Cc1ccc(-c2cc3nc(NC(C)(C)C)[nH]c(=O)c3s2)cc1 [Compound M1, gamhepathiopine, reference compound] | 0.045 |  |  | CC50 (HepG2 cell line; [4]): 24 µM; half-life (Microsomal stability): 11 min; Clint (intrinsic clearance) (Microsomal stability): 240 μLmin^−1mg
 |  | COc1cccc2c1C(=O)c1c(O)c3c(c(O)c1C2=O)C[C@@](O)(C(=O)CO)C[C@@H]3O[C@H]1C[C@H](N)[C@H](O)[C@H](C)O1 [Doxorubicine, doxorubicine] |  |  |  | CC50 (HepG2 cell line): 0.2 µM
 |  | C[C@H]1c2cccc(O)c2C(=O)C2=C(O)[C@]3(O)C(=O)C(C(N)=O)=C(O)[C@@H](N(C)C)[C@@H]3[C@@H](O)[C@@H]21 [Doxycycline, doxycycline] | 5 |  |  | CC50 (HepG2 cell line; [4]): 20 µM
 |  | Cc1ccc(-c2cc3nc(NC(C)(C)C)[nH]c(=O)c3s2)cc1 [M1 (free base), gamhepathiopine] | 0.2 |  |  | CC50 (HepG2 cell line; [4]): 25.6 µM
